# Data: patent publication US20260125360A1, “HERBICIDAL IMIDAZOLE COMPOUNDS” (SYNGENTA CROP PROTECTION AG, priority 2022, published 2026)
# Experiments:
# Assay type in all cases: in vivo
# Settings in all cases: 250 g/ha, evaluated after 13 days
# [1] = test system: Ipomoea hederacea (IPOHE); assay: Pre-emergence herbicide glasshouse test
# How it was run: (§1)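 Spray: acetone/water 50:50 + 0.5% Tween 20, 250 g/ha unless stated; 1 d (pre) or 8 d (post) after sowing. Glasshouse 24/16° C, 14 h light, 65% RH, watered twice daily. Read-out at 13 d: % damage binned 1–5 (5=81-100%, 1=0-20%).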
# [2] = test system: Amaranthus retoflexus (AMARE); assay: Pre-emergence herbicide glasshouse test
# How it was run: as §1
# [3] = test system: Echinochloa crus-galli (ECHCG); assay: Pre-emergence herbicide glasshouse test
# How it was run: as §1
# [4] = test system: Amaranthus palmeri (AMAPA); assay: Pre-emergence herbicide glasshouse test
# How it was run: as §1
# [5] = test system: Ipomoea hederacea (IPOHE); assay: Post-emergence herbicide glasshouse test
# How it was run: as §1
# [6] = test system: Amaranthus retoflexus (AMARE); assay: Post-emergence herbicide glasshouse test
# How it was run: as §1
# [7] = test system: Echinochloa crus-galli (ECHCG); assay: Post-emergence herbicide glasshouse test
# How it was run: as §1
# [8] = test system: Amaranthus palmeri (AMAPA); assay: Post-emergence herbicide glasshouse test
# How it was run: as §1
Compound,"percentage damage caused to the plant, IPOHE (five-point scale) [1]","percentage damage caused to the plant, AMARE (five-point scale) [2]","percentage damage caused to the plant, ECHCG (five-point scale) [3]","percentage damage caused to the plant, AMAPA (five-point scale) [4]","percentage damage caused to the plant, IPOHE (five-point scale) [5]","percentage damage caused to the plant, AMARE (five-point scale) [6]","percentage damage caused to the plant, ECHCG (five-point scale) [7]","percentage damage caused to the plant, AMAPA (five-point scale) [8]"
FC(F)(F)c1cn(Cc2ccc(Cl)s2)c(-c2ccc(Cl)nc2)n1 [Compound 1.117],1 (1=0-20%),5 (5=81-100%),1 (1=0-20%),5 (5=81-100%),2 (2=21-40%),5 (5=81-100%),1 (1=0-20%),5 (5=81-100%)
FC(F)(F)c1cn(Cc2ncco2)c(-c2ccc(Cl)nc2)n1 [Compound 1.118],5 (5=81-100%),5 (5=81-100%),1 (1=0-20%),5 (5=81-100%),3 (3=41-60%),3 (3=41-60%),1 (1=0-20%),3 (3=41-60%)
FC(F)(F)c1cn(Cc2noc(C3CC3)n2)c(-c2ccc(Cl)nc2)n1 [Compound 1.125],5 (5=81-100%),5 (5=81-100%),5 (5=81-100%),5 (5=81-100%),5 (5=81-100%),5 (5=81-100%),4 (4=61-80%),4 (4=61-80%)
CC(C)c1nc(Cn2cc(C(F)(F)F)nc2-c2ccc(Cl)nc2)no1 [Compound 1.126],1 (1=0-20%),1 (1=0-20%),1 (1=0-20%),1 (1=0-20%),1 (1=0-20%),1 (1=0-20%),1 (1=0-20%),1 (1=0-20%)
CC(C)c1nnc(Cn2cc(C(F)(F)F)nc2-c2ccc(Cl)nc2)o1 [Compound 1.131],1 (1=0-20%),5 (5=81-100%),1 (1=0-20%),1 (1=0-20%),1 (1=0-20%),1 (1=0-20%),1 (1=0-20%),1 (1=0-20%)
FC(F)(F)c1cn(Cc2cc(C3CC3)no2)c(-c2ccc(Cl)nc2)n1 [Compound 1.134],4 (4=61-80%),5 (5=81-100%),3 (3=41-60%),5 (5=81-100%),4 (4=61-80%),5 (5=81-100%),2 (2=21-40%),5 (5=81-100%)
CC(C)(C)c1csc(Cn2cc(C(F)(F)F)nc2-c2ccc(Cl)nc2)n1 [Compound 1.137],1 (1=0-20%),1 (1=0-20%),1 (1=0-20%),1 (1=0-20%),1 (1=0-20%),1 (1=0-20%),1 (1=0-20%),1 (1=0-20%)
